Bases are written 5' to 3'; sugars and linkages follow in the same order, as letters with counts (s phosphorothioate, o phosphodiester; PS: all linkages phosphorothioate). The collection does not say whether C is 5-methylated. l = locked nucleic acid (LNA); d = 2'-deoxy (DNA) A value given as a limit tells only on which side of the number the result lay.

For this data set, the target named is Tau. Description: rat primary cortical neurons, FLIPR, 25 uM ASO.
Regarding “TTAGACCACATTTCCAT (sugars l3 d11 l3, PS)”, the calcium oscillation score is 96 % of control.

Take “TTAGACTCCTTCTTTAGGCT (sugars l3 d14 l3, PS)”: the calcium oscillation score is 26.2 % of control. For the sequence TTAGCAGAGGAACGTG (sugars l3 d10 l3, PS), the calcium oscillation score is 25.9 % of control. As to TTAGCATCAGAGGTTT (sugars l3 d10 l3, PS), the calcium oscillation score is 23.3 % of control. Take TTAGCCCTAAAGTCCC (sugars l3 d10 l3, PS): the calcium oscillation score was 28.6 % of control. Then “TTAGCCCTAAAGTCCCAGGT (sugars l3 d14 l3, PS)”, with 86.3 % of control; and “TTATACAGTTGGCCCTACCA (sugars l3 d14 l3, PS)”, with 40.5 % of control. For TTATTAATTATCTGCA (sugars l3 d10 l3, PS), the calcium oscillation score is 58.7 % of control. “TTATTAATTCATAAATGACT (sugars l3 d14 l3, PS)”: the calcium oscillation score was 42.3 % of control. As for “TTATTCTTTTTTTTTCCACA (sugars l2 d14 l4, PS)”, the calcium oscillation score is 30.3 % of control. As to “TTATTTACACTGTCCTT (sugars l3 d10 l4, PS)”, the calcium oscillation score was 54.1 % of control. As to “TTATTTATTCTTTTTATTA (sugars l4 d11 l4, PS)”, the calcium oscillation score was 45.2 % of control. As for “TTATTTATTCTTTTTATTAT (sugars l4 d12 l4, PS)”, the figure is 66.3 % of control; as for “TTATTTCCAAATTCACTTTT (sugars l1 d17 l2, PS)”, 166 % of control; as for “TTATTTCCAAATTCACTTTT (sugars l2 d2 l2 d10 l4, PS)”, 123 % of control. As for “TTATTTCCAAATTCACTTTT (sugars l2 d16 l2, PS)”, the calcium oscillation score was 182 % of control. “TTATTTCCAAATTCACTTTT (sugars l3 d14 l3, PS)”: the calcium oscillation score is ≥ 200 % of control.

For the sequence “TTATTTCCAAATTCACTTTT (sugars l4 d11 l2 d1 l2, PS)”, the calcium oscillation score is 104 % of control.

For “TTATTTCCAAATTCACTTTT (sugars l4 d11 l5, PS)”, the calcium oscillation score was 124 % of control.

As for “TTATTTCCAAATTCACTTTT (sugars l5 d10 l5, PS)”, the calcium oscillation score was ≥ 200 % of control. “TTATTTCCAAATTCACTTTT (sugars l5 d11 l4, PS)”: the calcium oscillation score was 119 % of control. Then “TTATTTCCAAATTCACTTTT (sugars ldlllddddddddddlldll, PS)”, with 70.3 % of control. For “TTATTTCCAAATTCACTTTT (sugars llddldldddddddddllll, PS)”, the calcium oscillation score is 118 % of control. As for “TTATTTCCAAATTCACTTTT (sugars llddlldddddddddldlll, PS)”, the figure is 123 % of control; as for “TTATTTCCAAATTCACTTTT (sugars llddlldddddddddlldll, PS)”, 88.8 % of control; as for “TTATTTCCAAATTCACTTTT (sugars lldlddldddddddddllll, PS)”, 131 % of control. Regarding “TTATTTCCAAATTCACTTTT (sugars lldldlddddddddddllll, PS)”, the calcium oscillation score was 88.8 % of control. On to “TTATTTCCAAATTCACTTTT (sugars lldldldddddddddldlll, PS)”, for which the calcium oscillation score is 106 % of control.

“TTATTTCCAAATTCACTTTT (sugars lldldldddddddddlldll, PS)”: the calcium oscillation score was 110 % of control.

With “TTATTTCCAAATTCACTTTT (sugars lldllddddddddddldlll, PS)”, the calcium oscillation score was 81 % of control. Regarding “TTATTTCCAAATTCACTTTT (sugars lldllddddddddddlldll, PS)”, the calcium oscillation score was 121 % of control. Take “TTATTTCCAAATTCACTTTT (sugars lllddldddddddddldlll, PS)”: the calcium oscillation score was 108 % of control.

As for “TTATTTCCAAATTCACTTTT (sugars lllddldddddddddlldll, PS)”, the calcium oscillation score was 114 % of control. For the sequence “TTATTTCCAAATTCACTTTT (sugars llldlddddddddddldlll, PS)”, the calcium oscillation score is 116 % of control. As for “TTATTTCCAAATTCACTTTT (sugars llldldddddddddllddll, PS)”, the figure is 110 % of control; as for “TTATTTCCAAATTCACTTTT (sugars lllldddddddddlddldll, PS)”, 96.5 % of control; as for “TTATTTCCAAATTCACTTTT (sugars lllldddddddddldlddll, PS)”, 102 % of control. For “TTCACACAACAAACTATTAT (sugars l4 d12 l4, PS)”, the calcium oscillation score is 70.7 % of control. Take “TTCACCCCAAGACACAA (sugars l3 d11 l3, PS)”: the calcium oscillation score is 59 % of control.

With TTCACTTAGTAACCAA (sugars l4 d8 l4, PS), the calcium oscillation score was 62 % of control. Turning to TTCAGGTCTGGCATGG (sugars l3 d10 l3, PS), the calcium oscillation score was 1.9 % of control. Then TTCATCACCAAGTCCC (sugars l3 d11 l2, PS), with 51.4 % of control; and “TTCATCACCAAGTCCCA (sugars l3 d12 l2, PS)”, with 66.8 % of control; and “TTCATCTACTTTTCAGCT (sugars l4 d12 l2, PS)”, with 47.2 % of control. As for “TTCATGTTAAATCCCTC (sugars l4 d10 l3, PS)”, the calcium oscillation score was 103 % of control. In the case of “TTCCACATTTTACAGTA (sugars l3 d10 l4, PS)”, the calcium oscillation score was 76.6 % of control.

Take “TTCCACTACAAGCTCCA (sugars l3 d12 l2, PS)”: the calcium oscillation score is 53.9 % of control. As for “TTCCACTACAAGCTCCAC (sugars l3 d13 l2, PS)”, the figure is 52 % of control; as for TTCCAGTCCCGTCTTT (sugars l3 d10 l3, PS), 73.1 % of control; as for “TTCCATCACTTCGAACTCCT (sugars l3 d14 l3, PS)”, 13.6 % of control.

Regarding “TTCCATCCTAAGTCAACC (sugars l3 d13 l2, PS)”, the calcium oscillation score is 70.6 % of control. Take TTCCATCTTACTAATAG (sugars l4 d9 l4, PS): the calcium oscillation score is 49.2 % of control. In the case of “TTCCCAAATTCCTCATAATC (sugars l3 d15 l2, PS)”, the calcium oscillation score was 69.1 % of control. As to “TTCCCACAATTCCTACA (sugars l3 d12 l2, PS)”, the calcium oscillation score was 73.4 % of control. Consider TTCCCTTAATTTCACC (sugars l3 d10 l3, PS), for which the calcium oscillation score was 127 % of control. Then “TTCCTAATTCCCAAATTCC (sugars l3 d14 l2, PS)”, with 62.1 % of control. Regarding TTCCTCAGAAGGCATT (sugars l3 d10 l3, PS), the calcium oscillation score is 36.9 % of control. For “TTCCTGCAAATTCTCAA (sugars l4 d10 l3, PS)”, the calcium oscillation score is 61.7 % of control. Turning to TTCCTGGACCACCTTA (sugars l3 d10 l3, PS), the calcium oscillation score is 59.3 % of control.

Regarding “TTCCTGGCCATCTTATGCTG (sugars l3 d14 l3, PS)”, the calcium oscillation score was 22 % of control. Regarding “TTCCTTTCAATGACCAA (sugars l3 d10 l4, PS)”, the calcium oscillation score was 56.6 % of control. As for “TTCGAAACCAAGGTCCCACC (sugars l3 d14 l3, PS)”, the calcium oscillation score was 27.5 % of control.

“TTCTAATTTAGTCACCA (sugars l3 d10 l4, PS)”: the calcium oscillation score was 65.9 % of control. Turning to “TTCTAGTTATACAGTTGGCC (sugars l3 d14 l3, PS)”, the calcium oscillation score is 26.2 % of control. Then “TTCTCAAGTCTCTTTAA (sugars l3 d11 l3, PS)”, with 70.7 % of control.

As for “TTCTCACCAAACCCAGA (sugars l3 d12 l2, PS)”, the calcium oscillation score is 57.8 % of control. As for “TTCTCAGCACACCATTA (sugars l3 d12 l2, PS)”, the calcium oscillation score is 60.1 % of control. Then TTCTCGCGGAAGGTCA (sugars l3 d10 l3, PS), with 0 % of control.

Turning to TTCTCTAATTGTCCAAT (sugars l4 d9 l4, PS), the calcium oscillation score is 64 % of control. Take “TTCTCTCTTAACTTTATTTT (sugars l4 d12 l4, PS)”: the calcium oscillation score was 93 % of control. Take “TTCTGAATTCCTATCAT (sugars l4 d10 l3, PS)”: the calcium oscillation score is 40.1 % of control.

For “TTCTTAGAGGACTGCAACGC (sugars l3 d14 l3, PS)”, the calcium oscillation score was 23.9 % of control. Consider TTCTTCATTCTTGCCC (sugars l2 d12 l2, PS), for which the calcium oscillation score is 15.5 % of control. Turning to “TTCTTCCATCCTAAGTCA (sugars l3 d13 l2, PS)”, the calcium oscillation score was 51.7 % of control. Then “TTCTTCCTTTGTAATTC (sugars l4 d11 l2, PS)”, with 43.5 % of control; and “TTCTTCCTTTGTAATTCC (sugars l3 d13 l2, PS)”, with 39.6 % of control. With TTCTTGTGATGCAGGA (sugars l3 d10 l3, PS), the calcium oscillation score is 61.3 % of control. In the case of “TTCTTGTTCTAACCCCA (sugars l3 d12 l2, PS)”, the calcium oscillation score was 68.1 % of control.

In the case of “TTCTTTTTTTTTCCACACTC (sugars l3 d15 l2, PS)”, the calcium oscillation score is 27.4 % of control. Take “TTGAAGTCAAGCTTCTCAGA (sugars l3 d14 l3, PS)”: the calcium oscillation score was 0 % of control.

For TTGAAGTCCCGAGC (sugars l3 d8 l3, PS), the calcium oscillation score was 0 % of control.

Take TTGAAGTCCCGAGCC (sugars l3 d9 l3, PS): the calcium oscillation score is 0 % of control. Regarding TTGAAGTCCCGAGCCA (sugars l3 d10 l3, PS), the calcium oscillation score was 2.38 % of control. Consider “TTGAAGTCCCGAGCCAAAGC (sugars l3 d14 l3, PS)”, for which the calcium oscillation score was 0 % of control. On to TTGAGTTGAGGGACCC (sugars l3 d10 l3, PS), for which the calcium oscillation score was 0 % of control. Then TTGATAAAACATCCCT (sugars l4 d8 l4, PS), with 65 % of control; and TTGATACCCTTCCTCA (sugars l3 d10 l3, PS), with 14.3 % of control; and “TTGCAACTTTAACTCCA (sugars l4 d11 l2, PS)”, with 80.8 % of control. “TTGCCTAATGAGCCACACTT (sugars l3 d14 l3, PS)”: the calcium oscillation score was 36.5 % of control.

Consider TTGCTCAGGTCAACTG (sugars l3 d10 l3, PS), for which the calcium oscillation score is 42.9 % of control. Consider “TTGCTTTTCCCAATTAT (sugars l4 d11 l2, PS)”, for which the calcium oscillation score is 54.5 % of control. As for “TTGGAAAGATGAAATTTGCT (sugars l3 d14 l3, PS)”, the figure is 1.45 % of control.

The record behind these values is the OligoGym collection.
